Test results: patent US12221453B2, “Substituted pyrazolo[5′,1′:2,3]pyrimido[5,4-b][1,4]oxazines as TYK2 inhibitors” (TAKEDA PHARMACEUTICAL COMPANY LIMITED, priority 2018, dated 2025)

target: JAK2 (Invitrogen) kinase (Homo sapiens (Human), UniProt O60674); experiment: JAK2 radioactive kinase assay; format: biochemical; conditions: compound at 10 μM; ATP at 10 μM; substrate poly[Glu:Tyr] (4:1)
Protocol: Peptide substrate, [[…]], (20 μM) was prepared in reaction buffer (20 mM Hepes pH 7.5, 10 mM MgCl2, 1 mM EGTA, 0.02% Brij35, 0.02 mg/mL BSA, 0.1 mM […], 2 mM DTT, 1% DMSO. TYK2 (Invitrogen) kinase was added, followed by compounds in DMSO. 33PATP was added to initiate the reaction in ATP at 10 μM. Kinase reaction was incubated for 120 min at room temp and reactions were spotted onto P^81 ion exchange paper (Whatman #3698-915), and then washed extensively in 0.75% phosphoric acid, prior to reading the radioactivity counts. For JAK2 (Invitrogen) kinase assay the peptide substrate poly[Glu:Tyr] (4:1), 0.2 mg/mL was used, in the reaction carried out the same as for TYK2.

Sequence of JAK2 (Invitrogen) kinase (O60674 whole entry): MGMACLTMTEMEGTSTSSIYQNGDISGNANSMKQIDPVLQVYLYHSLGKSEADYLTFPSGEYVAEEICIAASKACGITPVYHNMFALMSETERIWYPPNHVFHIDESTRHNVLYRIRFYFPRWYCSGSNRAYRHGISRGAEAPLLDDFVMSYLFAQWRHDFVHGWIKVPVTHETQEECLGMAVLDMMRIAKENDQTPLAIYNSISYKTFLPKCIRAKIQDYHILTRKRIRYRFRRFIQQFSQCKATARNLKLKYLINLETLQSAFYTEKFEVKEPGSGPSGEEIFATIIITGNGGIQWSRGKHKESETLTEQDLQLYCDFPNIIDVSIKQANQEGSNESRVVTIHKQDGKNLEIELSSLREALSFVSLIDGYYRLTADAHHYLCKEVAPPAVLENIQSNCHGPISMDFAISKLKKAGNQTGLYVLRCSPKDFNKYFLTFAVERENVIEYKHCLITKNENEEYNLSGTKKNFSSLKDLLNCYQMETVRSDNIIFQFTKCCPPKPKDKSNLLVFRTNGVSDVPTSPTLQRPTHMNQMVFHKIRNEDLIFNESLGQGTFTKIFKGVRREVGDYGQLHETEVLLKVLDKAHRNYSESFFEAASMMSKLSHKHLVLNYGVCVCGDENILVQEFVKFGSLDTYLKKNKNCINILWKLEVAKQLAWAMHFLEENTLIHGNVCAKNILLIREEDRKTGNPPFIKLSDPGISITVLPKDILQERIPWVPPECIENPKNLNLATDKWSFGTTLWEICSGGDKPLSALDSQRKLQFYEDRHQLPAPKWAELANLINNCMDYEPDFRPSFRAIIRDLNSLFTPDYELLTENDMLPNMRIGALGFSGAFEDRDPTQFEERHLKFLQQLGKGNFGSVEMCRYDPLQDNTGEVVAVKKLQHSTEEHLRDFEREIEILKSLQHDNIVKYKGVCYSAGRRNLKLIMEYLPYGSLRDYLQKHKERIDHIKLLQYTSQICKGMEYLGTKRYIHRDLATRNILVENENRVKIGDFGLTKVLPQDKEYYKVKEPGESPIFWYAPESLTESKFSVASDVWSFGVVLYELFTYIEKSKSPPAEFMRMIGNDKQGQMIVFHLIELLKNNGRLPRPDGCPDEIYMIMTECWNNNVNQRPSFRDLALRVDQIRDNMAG

Structure (SMILES)	JAK2 (% Inhibition at 10 μM)
CNc1cc(Nc2cccn([C@H]3CC[C@H](OC)CC3)c2=O)nc2c(C(=O)N[C@@H]3CC[C@@H](OC)C3)cnn12 [I-69, 5-((1-((1r,4R)-4-Methoxycyclohexyl)-2-oxo-1,2-dihydropyridin-3-yl)amino)-N-((1R,3R)-3-methoxycyclopentyl)-7-(methylamino)pyrazolo[1,5-a]pyrimidine-3-carboxamide]	A (had a percent inhibition at 10 μM lower than 50)
CNc1cc(Nc2cccn([C@H]3CC[C@H](OC)CC3)c2=O)nc2c(C(=O)N[C@H]3CC[C@H](OC)C3)cnn12 [I-70, 5-((1-((1r,4S)-4-Methoxycyclohexyl)-2-oxo-1,2-dihydropyridin-3-yl)amino)-N-((1S,3S)-3-methoxycyclopentyl)-7-(methylamino)pyrazolo[1,5-a]pyrimidine-3-carboxamide]	A (had a percent inhibition at 10 μM lower than 50)

tested on: IL-12 induced STAT4 phosphorylation mediated by TYK2/JAK2; experiment: IL-12 induced pSTAT4 in human PBMC; format: cell-based; conditions: 1 hr compound, 1.7 ng/mL IL-12 for 30 minutes
Outline: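 Thawed human PBMC were pre-incubated with compound for 1 hr at 37 °C (0.1% DMSO), then stimulated with 1.7 ng/mL IL-12 for 30 minutes. Phospho-STAT4 and total STAT4 were measured in cell lysates by MSD.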

Structure (SMILES)	IC50
CNc1cc(-c2cnc3n([C@H]4COC[C@@H]4O)cccc2-3)nc2c(C(=O)N[C@@H]3CC[C@H]3OC)cnn12 [Compound I-878]	< 0.1 µM
CNc1cc(-c2cnc3n([C@H]4COC[C@@H]4OC)cccc2-3)nc2c(C(=O)NC3CC[C@@H]3OC)cnn12 (stereo partly drawn) [Compound I-880]	< 0.1 µM
CNc1cc(-c2cnc3n([C@H]4COC[C@@H]4OC)cccc2-3)nc2c(C(=O)N[C@@H]3CC[C@H]3OC)cnn12 [Compound I-881]	< 0.1 µM
CNc1cc(-c2cnc3n([C@@H]4COC[C@H]4OC)cccc2-3)nc2c(C(=O)NC3CC[C@@H]3OC)cnn12 (stereo partly drawn) [Compound I-883]	< 0.1 µM
CNc1cc(-c2cnc3n([C@@H]4COC[C@H]4OC)cccc2-3)nc2c(C(=O)N[C@@H]3CC[C@H]3OC)cnn12 [Compound I-884]	< 0.1 µM
CNc1cc(-c2cnc3n([C@@H]4CCOC[C@H]4OC)cccc2-3)nc2c(C(=O)N[C@@H]3CC[C@H]3OC)cnn12 [Compound I-896]	< 0.1 µM
CNc1cc(-c2cnc3n([C@H]4COC[C@@H]4O)cccc2-3)nc2c(C(=O)NC3CCC3(F)F)cnn12 (stereo partly drawn) [Compound I-898]	< 0.1 µM
CNc1cc(-c2cnc3n([C@@H]4COC[C@H]4O)cccc2-3)nc2c(C(=O)NC3CCC3(F)F)cnn12 (stereo partly drawn) [Compound I-901]	< 0.1 µM
CNc1cc(-c2cnc3n([C@@H]4COC[C@H]4O)cccc2-3)nc2c(C(=O)N[C@H]3CCC3(F)F)cnn12 [Compound I-902]	< 0.1 µM
CNc1cc(-c2cn([C@H]3C[C@@H](COC)C3)c3ncccc23)nc2c(C(=O)NC3CC[C@H]3O)cnn12 (stereo partly drawn) [Compound I-912]	< 0.1 µM
CNc1cc(-c2cn([C@H]3C[C@@H](COC)C3)c3ncccc23)nc2c(C(=O)N[C@@H]3CC[C@@H]3O)cnn12 [Compound I-914]	< 0.1 µM
CNc1cc(-c2cn([C@H]3[C@@H]4COC[C@@H]43)c3ncccc23)nc2c(C(=O)N[C@H]3CC[C@@H]3O)cnn12 [Compound I-915]	< 0.1 µM
CNc1cc(-c2cn([C@@H]3CCOC[C@H]3F)c3ncccc23)nc2c(C(=O)N[C@H]3CC[C@H]3O)cnn12 [Compound I-918]	< 0.1 µM
CNc1cc(-c2cn(CC(=O)N(C)C)c3ncccc23)nc2c(C(=O)N[C@H]3CC[C@@H]3OC)cnn12 [Compound I-921]	< 0.1 µM
CNc1cc(-c2cn(CCOC)c3ncccc23)nc2c(C(=O)N[C@H]3CC[C@@H]3OC)cnn12 [Compound I-923]	< 0.1 µM
CNc1cc(-c2cn([C@H]3C[C@@H](COC)C3)c3ncccc23)nc2c(C(=O)N[C@H]3CC[C@@H]3OC)cnn12 [Compound I-933]	< 0.1 µM
CNc1cc(-c2cnc3n([C@@H]4CN(C)C[C@H]4OC)cccc2-3)nc2c(C(=O)NC3CC[C@@H]3OC)cnn12 (stereo partly drawn) [Compound I-943]	< 0.1 µM
CNc1cc(-c2cnc3n([C@@H]4CN(C)C[C@H]4OC)cccc2-3)nc2c(C(=O)N[C@H]3CC[C@@H]3OC)cnn12 [Compound I-944]	< 0.1 µM
CNc1cc(-c2cnc3n([C@H]4CN(C)C[C@@H]4OC)cccc2-3)nc2c(C(=O)N[C@H]3CC[C@@H]3OC)cnn12 [Compound I-947]	< 0.1 µM
CNc1cc(-c2cn(CC(=O)N3CCCC3)c3ncccc23)nc2c(C(=O)N[C@H]3CC[C@@H]3OC)cnn12 [Compound I-965]	< 0.1 µM

Structure (SMILES)	IC50
CNc1cc(-c2cnc3n(CC(=O)N4CCC4)cccc2-3)nc2c(C(=O)N[C@H]3CC[C@@H]3OC)cnn12 [Compound I-977]	> 1 µM
CNc1cc(-c2cnc3n(CC(C)(C)O)cccc2-3)nc2c(C(=O)N[C@H]3CC[C@@H]3OC)cnn12 [Compound I-983]	< 0.1 µM
CNc1cc(-c2cnc3n(CCCN4CCOCC4)cccc2-3)nc2c(C(=O)N[C@H]3CC[C@@H]3OC)cnn12 [Compound I-990]	< 0.1 µM
CNc1cc(-c2cn(C(C)C)c3nnccc23)nc2c(C(=O)NC3CC[C@@H]3OC)cnn12 (stereo partly drawn) [Compound I-993]	< 0.1 µM
CNc1cc(-c2cnc3n([C@@H]4CCOC4)cccc2-3)nc2c(C(=O)NC3CC[C@@H]3OC)cnn12 (stereo partly drawn) [Compound I-995]	< 0.1 µM
CNc1cc(-c2cnc3n([C@H]4CCOC4)cccc2-3)nc2c(C(=O)N[C@H]3CC[C@@H]3OC)cnn12 [Compound I-1002]	< 0.1 µM
CNc1cc(-c2cnc3n([C@@H]4CCOC4)cccc2-3)nc2c(C(=O)N[C@H]3CC[C@@H]3OC)cnn12 [Compound I-1004]	< 0.1 µM
CO[C@H]1CC[C@@H]1NC(=O)c1cnn2c(N)cc(-c3cnc4n([C@H]5COC[C@@H]5OC)cccc3-4)nc12 [Compound I-1006]	< 0.1 µM
CNc1cc(-c2cn(C(C)C)c3nnccc23)nc2c(C(=O)N[C@@H]3CC[C@H]3OC)cnn12 [Compound I-1009]	< 0.1 µM
CNc1cc(-c2cnc3n(CC(=O)N4CC5(COC5)C4)cccc2-3)nc2c(C(=O)N[C@H]3CC[C@@H]3OC)cnn12 [Compound I-1012]	> 1 µM
CNc1cc(-c2cnc3n(C4CCOCC4)cccc2-3)nc2c(C(=O)N[C@H]3CC[C@@H]3OC)cnn12 [Compound I-1014]	< 0.1 µM
CNc1cc(-c2cn([C@H]3CC(=O)N(C)C3)c3ncccc23)nc2c(C(=O)N[C@H]3CC[C@@H]3OC)cnn12 [Compound I-1024]	< 0.1 µM
CNc1cc(Nc2cccn([C@H]3C[C@H](F)C3)c2=O)nc2c(C(=O)N[C@H]3CC[C@H]3O)cnn12 [I-16, 5-((1-((1r,3S)-3-Fluorocyclobutyl)-2-oxo-1,2-dihydropyridin-3-yl)amino)-N-((1S,2R)-2-hydroxycyclobutyl)-7-(methylamino)pyrazolo[1,5-a]pyrimidine-3-carboxamide]	< 0.1 µM
CNc1cc(Nc2cccn([C@H]3[C@@H]4COC[C@@H]43)c2=O)nc2c(C(=O)N[C@@H]3C[C@H]3OC)cnn12 [I-25, 5-((1-((1R,5S,6r)-3-Oxabicyclo[3.1.0]hexan-6-yl)-2-oxo-1,2-dihydropyridin-3-yl)amino)-N-((1R,2R)-2-methoxycyclopropyl)-7-(methylamino)pyrazolo[1,5-a]pyrimidine-3-carboxamide]	< 0.1 µM
CNc1cc(Nc2cccn([C@H]3CC[C@H](OC)CC3)c2=O)nc2c(C(=O)N[C@@H]3C[C@H]3OC)cnn12 [I-31, 5-((1-((1r,4R)-4-Methoxycyclohexyl)-2-oxo-1,2-dihydropyridin-3-yl)amino)-N-((1R,2R)-2-methoxycyclopropyl)-7-(methylamino)pyrazolo[1,5-a]pyrimidine-3-carboxamide]	< 0.1 µM
CNc1cc(Nc2cccn([C@H]3CC[C@H](OC)CC3)c2=O)nc2c(C(=O)N[C@H]3C[C@@H]3OC)cnn12 [I-32, 5-((1-((1r,4S)-4-Methoxycyclohexyl)-2-oxo-1,2-dihydropyridin-3-yl)amino)-N-((1S,2S)-2-methoxycyclopropyl)-7-(methylamino)pyrazolo[1,5-a]pyrimidine-3-carboxamide]	< 0.1 µM
CNc1cc(Nc2cccn([C@@H]3C[C@H]3F)c2=O)nc2c(C(=O)N[C@@H]3CC[C@H]3OC)cnn12 [I-53, 5-((1-((1R,2R)-2-Fluorocyclopropyl)-2-oxo-1,2-dihydropyridin-3-yl)amino)-N-((1R,2R)-2-methoxycyclobutyl)-7-(methylamino)pyrazolo[1,5-a]pyrimidine-3-carboxamide]	< 0.1 µM
CNc1cc(Nc2cccn([C@H]3C[C@H](F)C3)c2=O)nc2c(C(=O)N[C@@H]3CC[C@H]3OC)cnn12 [I-57, 5-((1-((1r,3R)-3-Fluorocyclobutyl)-2-oxo-1,2-dihydropyridin-3-yl)amino)-N-((1R,2R)-2-methoxycyclobutyl)-7-(methylamino)pyrazolo[1,5-a]pyrimidine-3-carboxamide]	< 0.1 µM
CNc1cc(-c2cn([C@H]3C[C@@H](O)C3)c3ncccc23)nc2c(C(=O)NC3CC[C@H]3O)cnn12 (stereo partly drawn) [I-111, N-((cis-1,2)-2-Hydroxycyclobutyl)-5-(1-((1s,3R)-3-hydroxycyclobutyl)-1H-pyrrolo[2,3-b]pyridin-3-yl)-7-(methylamino)pyrazolo[1,5-a]pyrimidine-3-carboxamide]	0.1 to 0.5 µM
CNc1cc(-c2cn([C@H]3[C@@H]4COC[C@@H]43)c3ncccc23)nc2c(C(=O)N[C@H]3CC[C@@H]3OC)cnn12 [I-793, 5-(1-((1R,5S,6r)-3-oxabicyclo[3.1.0]hexan-6-yl)-1H-pyrrolo[2,3-b]pyridin-3-yl)-N-((1S,2S)-2-methoxycyclobutyl)-7-(methylamino)pyrazolo[1,5-a]pyrimidine-3-carboxamide]	< 0.1 µM
